# Source: US8957103B2, “Conjugated 3-(indolyl)- and 3-(azaindolyl)-4-arylmaleimide compounds and their use in tumor treatment” (Johannes Gutenberg—Universitat Mainz, priority 2010, dated 2015)
# Experiments:
# [1] = In vitro hepatic microsome stability; format: in vitro ADME; conditions: rat liver microsomes in Tris buffer
# Protocol: Metabolic conversion was evaluated by incubating compounds of the invention (test compounds) with rat liver microsomes (BD Biosciences) in Tris buffer.
# FLT-3 = FLT-3 (Homo sapiens (Human), UniProt P36888); test: FLT-3 kinase assay (Millipore IC50Profiler); format: biochemical
# Protocol: (§1) GSK-3β, VEGFR-2, FLT-3, Kinase Assays
# (§2) The effect of test compounds on the activity of the protein kinases GSK-3β, VEGFR-2 and FLT-3 was evaluated based on half maximal inhibitory concentration (IC50) values determined by Millipore UK Ltd; Gemini Crescent; Dundee Technology Park; Dundee DD2 1SW; UK (IC50Profiler). Detailed protocols can be found at: www.millipore.com/drugdiscovery/dd3/assayprotocols.
# (§3) The inhibitory effect of test compounds on protein kinases VEGFR-2, FLT-3 and GSK-3β was investigated using respective kinase inhibition assays (method described above) and the values of half maximal inhibitory concentration (IC50) were determined from the assay results. […] Thus, compounds with selective kinase profiles were identified, which may allow application specific for a certain tumor or condition while showing less side-effects caused by activity against other kinases.
# GSK-3β = GSK-3β (Homo sapiens (Human), UniProt P49841); test: GSK-3β kinase assay (Millipore IC50Profiler); format: biochemical
# Protocol: as §1, §2, §3
# HT-29 cells = test: Nicoletti apoptosis assay by cell cycle analysis (sub-G1 fraction); format: cell-based, human; conditions: 7 days
# Protocol: Nicoletti Apoptosis Assay by Cell Cycle Analysis
# Cancer cells were transferred to 12-well flat-bottomed plates. 1.5×10^5 viable cells contained in 1 ml cell suspension were plated into each well and incubated over night before exposure with various concentrations of drugs. Subsequently, cells were incubated in 1 ml medium containing various concentrations of test compounds at 37° C. with 5% CO2. After incubation the cells were washed with PBS, trypsinized, pelleted and mixed with PI buffer (containing 0.1% sodium citrate, 0.1% triton X-100, […] propidium iodide (PI)) and incubated for 1 hour at 4° C. Cell cycle sub-G1 fraction analysis was performed as described previously (Nicoletti, I. et al. (1991) J. Immunol. Methods 139: 271-279) using a flow cytometer (BD FACS Calibur™, BD Biosciences, Heidelberg, Germany). Each experiment was done in triplicate.
# (§4) Working solutions of 26 mM test compound in DMSO were prepared and stored in aliquots at −20° C. A 29.6 mM stock solution of irinotecan in water was prepared and stored in aliquots at 4° C. The drugs were diluted in culture medium immediately before use to obtain the desired concentrations.
# (§5) The human colon cancer cell line HT-29 was obtained from the DSMZ, Germany. […] cells were cultured in RPMI 1640 supplemented with 10% FCS at 37° C. and 5% CO2.
# Compounds of the invention (test compounds) and the topoisomerase I inhibitor irinotecan were analyzed for their individual and combined effect in apoptosis assay (method described above). Induction of apoptosis was determined by cell cycle analysis (% sub-G1 fraction) after incubating HT-29 cells with test compounds, irinotecan or combinations thereof, respectively, for 7 days.
# VEGFR-2 = VEGFR-2 (Homo sapiens (Human), UniProt P35968); test: VEGFR-2 kinase assay (Millipore IC50Profiler); format: biochemical
# From the text: as §1
# Detailed protocols can be found at: www.millipore.com/drugdiscovery/dd3/assayprotocols.
# [2] = test system: HT-29 human colon adenocarcinoma cells; test: MTT assay, antiproliferative effect; format: cell-based; conditions: HT-29, 72 h, 3 days, read-out: Viability of HT-29 cells as determined by MTT assay
# Protocol: Evaluation of Antiproliferative Effect (MTT Assay)
# The antiproliferative activity of test compounds was determined by the 3-(4,5-dimethylthiazol-2-yl)-2,5-diphenyltetrazolium bromide (MTT) assay as described previously (Mosmann, T. et al. (1983) J. Immunol. Methods 65: 55-63). Cells in the exponential growth phase were transferred to 96-well flat-bottomed plates. 10,000 viable cells contained in 200 μl cell suspension were plated into each well and incubated over night. Cells were then exposed to various concentrations of test compounds (100 μl/well) for 3 days at 37° C. with 5% CO2. Subsequently, 10 μl/well MTT stock solution (5 mg/ml; Biomol, Germany) were added and the cells were incubated at 37° C. with 5% CO2 for 4 hours. 100 μl solubilization solution (10% SDS in 0.01 M HCl) were added and the cells were incubated at 37° C. with 5% CO2 over night. Plates were read on an ELISA-Reader ELX 800 (BIO-TEK Software KC 4) at 562 nm absorbance. Each experiment was done in triplicate.
# as §4, §5
# The antitumor activity of test compounds was examined against HT-29 human colon adenocarcinoma cells using MTT assay (method described above).
# [3] = 8 μM test compound plus 1.18 μM irinotecan
# Chain of FLT-3 (P36888 27-993): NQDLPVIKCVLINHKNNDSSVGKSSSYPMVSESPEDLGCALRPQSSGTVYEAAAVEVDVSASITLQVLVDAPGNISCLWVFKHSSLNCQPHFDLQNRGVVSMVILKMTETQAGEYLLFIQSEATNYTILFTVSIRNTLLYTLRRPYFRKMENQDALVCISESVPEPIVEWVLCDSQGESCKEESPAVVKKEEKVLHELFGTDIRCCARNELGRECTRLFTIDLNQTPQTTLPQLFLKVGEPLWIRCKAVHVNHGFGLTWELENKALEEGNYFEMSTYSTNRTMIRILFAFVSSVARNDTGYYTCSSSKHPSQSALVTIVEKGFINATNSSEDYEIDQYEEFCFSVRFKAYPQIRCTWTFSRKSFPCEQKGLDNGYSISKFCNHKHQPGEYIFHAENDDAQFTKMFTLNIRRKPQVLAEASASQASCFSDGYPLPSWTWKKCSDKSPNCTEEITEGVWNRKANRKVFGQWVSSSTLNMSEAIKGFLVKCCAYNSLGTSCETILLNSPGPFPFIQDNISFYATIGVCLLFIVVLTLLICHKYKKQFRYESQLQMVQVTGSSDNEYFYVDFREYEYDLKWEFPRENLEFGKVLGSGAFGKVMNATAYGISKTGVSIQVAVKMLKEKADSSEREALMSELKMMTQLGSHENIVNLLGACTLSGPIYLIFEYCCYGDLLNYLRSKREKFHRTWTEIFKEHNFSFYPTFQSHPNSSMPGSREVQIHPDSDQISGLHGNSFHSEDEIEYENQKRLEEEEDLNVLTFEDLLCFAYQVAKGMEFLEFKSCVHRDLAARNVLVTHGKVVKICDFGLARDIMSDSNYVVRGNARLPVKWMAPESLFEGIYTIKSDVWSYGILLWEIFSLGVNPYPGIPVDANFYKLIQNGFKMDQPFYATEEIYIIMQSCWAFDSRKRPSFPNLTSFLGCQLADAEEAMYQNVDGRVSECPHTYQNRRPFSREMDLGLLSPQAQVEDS
# Chain of GSK-3β (P49841 whole entry): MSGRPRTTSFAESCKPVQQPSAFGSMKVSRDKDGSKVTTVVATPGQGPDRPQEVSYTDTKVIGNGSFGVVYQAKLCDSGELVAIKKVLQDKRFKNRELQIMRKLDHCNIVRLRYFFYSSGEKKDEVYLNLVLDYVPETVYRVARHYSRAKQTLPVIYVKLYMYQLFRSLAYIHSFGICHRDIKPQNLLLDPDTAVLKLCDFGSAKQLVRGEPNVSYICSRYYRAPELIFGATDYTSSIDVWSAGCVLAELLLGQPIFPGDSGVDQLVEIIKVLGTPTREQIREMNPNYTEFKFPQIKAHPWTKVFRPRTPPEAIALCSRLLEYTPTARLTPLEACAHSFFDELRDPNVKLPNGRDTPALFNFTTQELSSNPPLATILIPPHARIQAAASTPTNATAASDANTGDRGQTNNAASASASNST
# Chain of VEGFR-2 (P35968 20-1356): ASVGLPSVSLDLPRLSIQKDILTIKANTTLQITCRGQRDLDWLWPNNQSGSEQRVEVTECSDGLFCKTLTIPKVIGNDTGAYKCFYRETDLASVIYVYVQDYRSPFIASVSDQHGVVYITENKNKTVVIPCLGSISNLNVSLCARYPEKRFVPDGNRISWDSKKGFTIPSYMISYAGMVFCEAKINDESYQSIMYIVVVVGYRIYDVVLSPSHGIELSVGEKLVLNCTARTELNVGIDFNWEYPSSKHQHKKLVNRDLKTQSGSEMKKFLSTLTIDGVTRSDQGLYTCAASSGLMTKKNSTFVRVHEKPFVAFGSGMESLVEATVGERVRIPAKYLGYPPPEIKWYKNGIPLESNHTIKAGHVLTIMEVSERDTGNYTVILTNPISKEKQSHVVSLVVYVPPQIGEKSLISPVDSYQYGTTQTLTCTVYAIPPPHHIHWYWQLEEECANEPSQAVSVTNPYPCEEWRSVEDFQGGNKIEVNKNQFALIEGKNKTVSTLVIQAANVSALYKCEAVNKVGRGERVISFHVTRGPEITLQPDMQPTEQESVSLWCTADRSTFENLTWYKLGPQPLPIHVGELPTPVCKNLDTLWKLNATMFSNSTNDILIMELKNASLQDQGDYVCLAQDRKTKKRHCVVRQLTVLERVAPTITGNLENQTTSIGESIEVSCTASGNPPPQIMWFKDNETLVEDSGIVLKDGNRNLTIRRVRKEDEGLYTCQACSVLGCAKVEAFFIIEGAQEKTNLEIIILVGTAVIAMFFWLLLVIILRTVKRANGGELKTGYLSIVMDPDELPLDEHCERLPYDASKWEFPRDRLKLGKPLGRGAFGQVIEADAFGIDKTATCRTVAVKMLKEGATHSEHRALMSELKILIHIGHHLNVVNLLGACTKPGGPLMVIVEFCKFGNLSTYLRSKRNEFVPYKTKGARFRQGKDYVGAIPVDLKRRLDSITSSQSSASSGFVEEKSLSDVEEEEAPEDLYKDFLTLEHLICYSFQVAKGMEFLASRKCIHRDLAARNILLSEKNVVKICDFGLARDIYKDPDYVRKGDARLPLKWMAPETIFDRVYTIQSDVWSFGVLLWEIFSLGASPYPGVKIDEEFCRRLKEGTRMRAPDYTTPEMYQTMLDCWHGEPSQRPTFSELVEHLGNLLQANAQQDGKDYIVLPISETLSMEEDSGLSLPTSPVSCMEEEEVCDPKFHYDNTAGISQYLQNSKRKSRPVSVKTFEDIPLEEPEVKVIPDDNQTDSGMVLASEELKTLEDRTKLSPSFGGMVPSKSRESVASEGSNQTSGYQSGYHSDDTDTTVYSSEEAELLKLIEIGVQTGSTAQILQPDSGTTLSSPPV
Structure (SMILES),"Metabolic conversion (degradation, metabolite formed) [1]",IC50 (FLT-3),IC50 (GSK-3β),IC50 (VEGFR-2),Sub-G1 Fraction (HT-29 cells; 8 μM test compound only),Sub-G1 Fraction (HT-29 cells; [3]),viability at 1 µM [2],viability at 10 µM [2],viability at 20 µM [2],viability at 50 µM [2],Sub-G1 Fraction (HT-29 cells; 1.18 μM irinotecan only)
"COc1cc(C2=C(c3cn(CCCO)c4ccccc34)C(=O)NC2=O)cc(OC)c1OC [Compound D1, 3-(1-(3-hydroxypropyl)indol-3-yl)-4-(3,4,5-trimethoxyphenyl)-1H-pyrrole-2,5-dione]",upon further degradation gave compound Z1,,,,,,,,,,
"COc1cc(C2=C(c3cn(CCCO)c4ccccc34)C(=O)NC2=O)cc(OC)c1OC [Compound C1, 3-(1-(3-hydroxypropyl)indol-3-yl)-4-(3,4,5-trimethoxyphenyl)-1H-pyrrole-2,5-dione]",gave its metabolite Z1,556 nM,2250 nM,,,,,,,,
"COc1cc(C2=C(c3c[nH]c4ccccc34)C(=O)NC2=O)cc(OC)c1OC [Compound Z1, 3-(1-H-indol-3-yl)-4-(3,4,5-trimethoxyphenyl)-1H-pyrrole-2,5-dione]",metabolized to form metabolite Z2,270 nM,> 1000 nM,90 nM,,,,,,,
"CCc1c2c(nc3ccc(OC(=O)N4CCC(N5CCCCC5)CC4)cc13)-c1cc3c(c(=O)n1C2)COC(=O)[C@]3(O)CC [irinotecan, reference compound]",,,,,,,,,,,26.1 ± 2.1%

# More lines, main results first:
"Metabolic conversion (degradation, metabolite formed) [1]",IC50 (FLT-3),IC50 (GSK-3β),IC50 (VEGFR-2),Structure (SMILES),Sub-G1 Fraction (HT-29 cells; 8 μM test compound only),Sub-G1 Fraction (HT-29 cells; [3]),viability at 1 µM [2],viability at 10 µM [2],viability at 20 µM [2],viability at 50 µM [2],Sub-G1 Fraction (HT-29 cells; 1.18 μM irinotecan only)
yield metabolite D1,239 nM,12 nM,251 nM,"COc1cc(C2=C(c3cn(CCOC(=O)C(N)CC(C)C)c4ccccc34)C(=O)NC2=O)cc(OC)c1OC (stereo not shown) [Compound D, 2-(3-(2,5-Dioxo-4-(3,4,5-trimethoxyphenyl)-2,5-dihydro-1H-pyrrol-3-yl)-1H-indol-1-yl)ethyl 2-amino-4-methylpentanoate]",6.2 ± 0.8%,44.5 ± 1.5%,104 ± 6.4%,99.4 ± 8.3%,94.5 ± 8.3%,65.3 ± 3.3%,
,≥ 1000 nM,208 nM,≥ 1000 nM,"COc1cc(C2=C(c3cn(CCCNC(=O)C(N)CC(C)C)c4ccccc34)C(=O)NC2=O)cc(OC)c1OC (stereo not shown) [Compound A, 2-Amino-N-(3-(3-(2,5-dioxo-4-(3,4,5-trimethoxyphenyl)-2,5-dihydro-1H-pyrrol-3-yl)-1H-indol-1-yl)propyl)-4-methylpentanamide]",7.4 ± 0.5%,38.9 ± 2.8%,94.9 ± 4.6%,68.7 ± 0.9%,59.2 ± 5.4%,26 ± 8.9%,
time dependent degradation,480 nM,134 nM,≥ 1000 nM,"COc1cc(C2=C(c3cn(CCCOC(=O)C(N)CC(C)C)c4ccccc34)C(=O)NC2=O)cc(OC)c1OC (stereo not shown) [Compound C, 3-(3-(2,5-Dioxo-4-(3,4,5-trimethoxyphenyl)-2,5-dihydro-1H-pyrrol-3-yl)-1H-indol-1-yl)propyl 2-amino-4-methylpentanoate]",6.6 ± 0.4%,39.2 ± 0.7%,96.7 ± 3.3%,49.3 ± 1.1%,51 ± 2.3%,,
